Measured values reported in ChEMBL document CHEMBL1201862, “PubChem BioAssay data set” (2004).
Each block holds one compound with its values, some of them ahead of it. Calls of active or inactive are those of the source.

Assays:
[1] = target: T1, Voltage-gated N-type calcium channel alpha-1B subunit/Amyloid beta A4 precursor protein-binding family A member 1 (Homo sapiens, UniProt Q00975+Q02410); assay type: protein assay
[2] = fluconazole-exposed Candida albicans growth modulators – fluorescence, retest, confirmation (AID 2467); assay type: functional, cell-based
[3] = target: Large T antigen (Simian virus 40, UniProt P03070); assay type: functional, Betapolyomavirus macacae;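 note: Confirmatory-stage PubChem screen for compounds that inhibit SV40 T antigen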
[4] = target: T1, Voltage-gated N-type calcium channel alpha-1B subunit/Amyloid beta A4 precursor protein-binding family A member 1; assay type: protein assay; remark: listed apart in the source
[5] = Trypanosoma cruzi growth suppression in host cells – NIH3T3 host cells, beta-gal luminescence, confirmation (AID 2044); assay type: functional, cell-based;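 note: intracellular parasites grown in NIH/3T3 mouse fibroblasts as host cells; luminescent beta-galactosidase reporter signal from transgenic T. cruzi replicating inside host cells; inhibitors lower the luminescence signal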
[6] = viability of PTEN-deleted HCT116 cells – cell-based, HCT116 PTEN knockout, dose response (AID 1047); assay type: functional;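 note: HCT116 colon tumor cells with PTEN knocked out; cells exposed to compound for 60 hours before readout; potency for loss of cell viability measured by luminescence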
[7] = NIH3T3 cell viability loss – ATP luminescence, mouse fibroblasts, counter-screen, dose response (AID 2010); assay type: functional, cell-based;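 note: cells exposed to compound for about 90 hours before reading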
[8] = viability of HCT116 lacking mutant beta-catenin – cell-based, human colon tumor, dose response (AID 1045); assay type: functional;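 note: HCT116 colon tumor cells with beta catenin knocked out; cells exposed to compound for 60 hours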
[9] = target: Heat shock protein HSP 90-alpha (Homo sapiens, UniProt P07900); assay type: functional, organism-based
[10] = reduction of Shn3 3'UTR-driven luciferase in osteoblasts – cell-based, Clone20 osteoblasts, firefly luciferase, cherry-picked, dose response (AID 624132); assay type: functional;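 note: firefly luciferase luminescence from reporter carrying the Shn3 3'UTR in osteoblasts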
[11] = loss of viability in HepG2 cells – cell-based, CellTiter-Glo, cherry-picked, cytotoxicity control for Shn3 inhibitor project, dose response (AID 624134); assay type: functional
[12] = non-specific 3'UTR reporter inhibition in Clone20-Shn3RL – cell-based, Renilla luciferase, cherry-picked, counter-screen for Shn3 inhibitor project, dose response (AID 624133); assay type: functional
[13] = target: DNA dC->dU-editing enzyme APOBEC-3A (Homo sapiens, UniProt P31941); test: Dose Response confirmation of small molecule APOBEC3A DNA Deaminase Inhibitors via a fluorescence-based single-stranded DNA deaminase assay. [Related pubchem assays (depositor defined):AID493011, AID493024]; assay type: functional
[14] = target: DNA dC->dU-editing enzyme APOBEC-3G (Homo sapiens, UniProt Q9HC16); assay type: functional;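 note: Dose-response counterscreen measuring inhibition of APOBEC3G DNA deaminase activity, run while confirming APOBEC3A inhibitors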
[15] = target: T2, Caspase-6 (Homo sapiens, UniProt P55212); test: inhibition of CASP6 peptide cleavage – biochemical, VEID-R110 fluorescence, cherry-pick, dose response (AID 720632)
T2 sequence (P55212 whole entry): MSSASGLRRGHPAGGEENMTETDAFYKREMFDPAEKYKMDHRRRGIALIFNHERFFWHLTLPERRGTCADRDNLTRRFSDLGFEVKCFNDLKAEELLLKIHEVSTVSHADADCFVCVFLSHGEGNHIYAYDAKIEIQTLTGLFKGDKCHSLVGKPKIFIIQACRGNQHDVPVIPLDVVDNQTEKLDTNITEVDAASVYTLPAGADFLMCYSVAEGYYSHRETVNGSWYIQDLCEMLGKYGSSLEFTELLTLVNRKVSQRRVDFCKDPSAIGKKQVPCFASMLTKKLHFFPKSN

[16] = target: T3, E3 ubiquitin-protein ligase XIAP (Homo sapiens, UniProt P98170); test: Counter Screen using XIAP-Bir3 for Chemical Antagonists of Bir1/2 domains of IAP-family anti-apoptotic proteins. [Related pubchem assays (depositor defined):AID1018, AID1449, AID1514, AID1638, AID1749, AID1750, AID488957, AID488963]
[17] = target: T3, E3 ubiquitin-protein ligase XIAP; test: small molecules displacing peptide from XIAP – biochemical, IAP family, fluorescence polarization (AID 1018); assay type: functional
[18] = target: T4, Tyrosine-protein phosphatase non-receptor type 7 (Homo sapiens, UniProt P35236); test: redox-active compounds inhibiting HePTP phosphatase – biochemical, fluorescence, mechanism study (AID 2068); assay type: functional
T4 sequence (P35236 whole entry): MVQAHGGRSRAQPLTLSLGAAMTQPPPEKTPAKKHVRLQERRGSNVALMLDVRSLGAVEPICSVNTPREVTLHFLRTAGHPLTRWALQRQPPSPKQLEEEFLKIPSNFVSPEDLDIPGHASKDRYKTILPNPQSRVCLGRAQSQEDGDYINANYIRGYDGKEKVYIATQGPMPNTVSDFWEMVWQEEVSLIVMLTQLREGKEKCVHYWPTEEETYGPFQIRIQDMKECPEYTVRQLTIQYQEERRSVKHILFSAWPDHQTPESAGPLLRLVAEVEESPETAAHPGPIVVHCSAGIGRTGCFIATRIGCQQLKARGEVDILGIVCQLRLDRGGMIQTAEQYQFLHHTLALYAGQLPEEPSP

Sequence of DNA dC->dU-editing enzyme APOBEC-3A (P31941 whole entry): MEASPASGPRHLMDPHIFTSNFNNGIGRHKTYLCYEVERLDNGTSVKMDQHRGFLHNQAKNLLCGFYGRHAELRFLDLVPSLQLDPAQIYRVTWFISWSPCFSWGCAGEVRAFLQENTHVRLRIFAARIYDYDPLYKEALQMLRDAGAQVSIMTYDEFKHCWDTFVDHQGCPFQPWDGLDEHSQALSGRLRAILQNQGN
T1 sequence (Q00975 whole entry): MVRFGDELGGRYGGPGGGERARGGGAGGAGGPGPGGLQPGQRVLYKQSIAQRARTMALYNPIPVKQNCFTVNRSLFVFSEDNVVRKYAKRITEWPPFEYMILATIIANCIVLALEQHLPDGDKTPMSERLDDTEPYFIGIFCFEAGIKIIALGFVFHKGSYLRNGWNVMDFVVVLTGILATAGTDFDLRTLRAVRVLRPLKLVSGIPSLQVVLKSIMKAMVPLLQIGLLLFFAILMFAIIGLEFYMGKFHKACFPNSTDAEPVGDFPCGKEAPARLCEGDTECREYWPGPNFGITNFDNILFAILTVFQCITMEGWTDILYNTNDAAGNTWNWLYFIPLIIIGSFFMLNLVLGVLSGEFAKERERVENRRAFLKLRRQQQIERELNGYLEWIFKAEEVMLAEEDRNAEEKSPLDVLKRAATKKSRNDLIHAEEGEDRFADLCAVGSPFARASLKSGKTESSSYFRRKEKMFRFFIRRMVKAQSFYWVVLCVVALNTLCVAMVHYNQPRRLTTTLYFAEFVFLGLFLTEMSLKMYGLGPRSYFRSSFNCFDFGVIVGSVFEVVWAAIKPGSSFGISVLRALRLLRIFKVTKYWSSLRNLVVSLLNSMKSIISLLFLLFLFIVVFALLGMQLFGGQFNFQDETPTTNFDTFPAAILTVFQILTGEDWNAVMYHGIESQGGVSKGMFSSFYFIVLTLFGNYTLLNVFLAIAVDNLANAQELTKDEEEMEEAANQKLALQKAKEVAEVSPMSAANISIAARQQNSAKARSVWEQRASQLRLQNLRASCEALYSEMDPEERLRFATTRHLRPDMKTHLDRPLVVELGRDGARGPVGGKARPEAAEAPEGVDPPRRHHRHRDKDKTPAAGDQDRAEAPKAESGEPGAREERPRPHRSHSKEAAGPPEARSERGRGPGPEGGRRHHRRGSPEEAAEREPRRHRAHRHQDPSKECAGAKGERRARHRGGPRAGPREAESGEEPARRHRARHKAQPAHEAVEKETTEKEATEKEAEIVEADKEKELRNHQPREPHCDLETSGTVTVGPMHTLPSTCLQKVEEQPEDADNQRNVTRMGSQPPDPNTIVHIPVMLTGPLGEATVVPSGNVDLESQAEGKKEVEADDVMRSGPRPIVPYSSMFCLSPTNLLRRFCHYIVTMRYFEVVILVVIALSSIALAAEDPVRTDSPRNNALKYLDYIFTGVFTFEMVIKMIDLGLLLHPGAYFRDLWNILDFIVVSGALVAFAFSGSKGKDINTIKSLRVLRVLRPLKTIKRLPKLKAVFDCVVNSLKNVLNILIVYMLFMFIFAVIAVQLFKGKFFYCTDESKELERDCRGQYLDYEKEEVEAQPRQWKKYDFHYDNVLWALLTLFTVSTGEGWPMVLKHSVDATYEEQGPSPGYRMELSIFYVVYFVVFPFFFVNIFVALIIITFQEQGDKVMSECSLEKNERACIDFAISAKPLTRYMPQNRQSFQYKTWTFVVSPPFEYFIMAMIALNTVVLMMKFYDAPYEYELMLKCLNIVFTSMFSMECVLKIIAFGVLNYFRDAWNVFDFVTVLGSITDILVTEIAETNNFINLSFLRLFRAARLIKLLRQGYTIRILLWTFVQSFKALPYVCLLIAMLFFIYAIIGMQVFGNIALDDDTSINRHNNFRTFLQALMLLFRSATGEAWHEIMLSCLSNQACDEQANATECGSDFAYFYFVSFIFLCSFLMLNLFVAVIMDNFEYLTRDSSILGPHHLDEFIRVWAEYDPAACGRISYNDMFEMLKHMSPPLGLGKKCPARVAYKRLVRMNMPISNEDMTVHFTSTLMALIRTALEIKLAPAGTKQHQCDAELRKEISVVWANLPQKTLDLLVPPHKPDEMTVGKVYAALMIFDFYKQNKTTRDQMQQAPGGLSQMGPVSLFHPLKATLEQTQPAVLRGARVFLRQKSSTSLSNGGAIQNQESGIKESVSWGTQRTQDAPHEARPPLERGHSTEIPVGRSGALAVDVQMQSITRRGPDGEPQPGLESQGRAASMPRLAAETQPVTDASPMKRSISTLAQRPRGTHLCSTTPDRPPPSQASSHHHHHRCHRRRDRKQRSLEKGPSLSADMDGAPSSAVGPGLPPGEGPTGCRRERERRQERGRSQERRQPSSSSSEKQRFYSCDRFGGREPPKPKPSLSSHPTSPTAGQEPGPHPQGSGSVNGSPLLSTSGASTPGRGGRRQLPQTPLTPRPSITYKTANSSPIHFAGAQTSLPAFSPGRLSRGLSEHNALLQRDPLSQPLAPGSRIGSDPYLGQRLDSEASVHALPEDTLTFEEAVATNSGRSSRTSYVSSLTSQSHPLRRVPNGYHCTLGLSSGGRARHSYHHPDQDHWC
T1 sequence (Q02410 whole entry): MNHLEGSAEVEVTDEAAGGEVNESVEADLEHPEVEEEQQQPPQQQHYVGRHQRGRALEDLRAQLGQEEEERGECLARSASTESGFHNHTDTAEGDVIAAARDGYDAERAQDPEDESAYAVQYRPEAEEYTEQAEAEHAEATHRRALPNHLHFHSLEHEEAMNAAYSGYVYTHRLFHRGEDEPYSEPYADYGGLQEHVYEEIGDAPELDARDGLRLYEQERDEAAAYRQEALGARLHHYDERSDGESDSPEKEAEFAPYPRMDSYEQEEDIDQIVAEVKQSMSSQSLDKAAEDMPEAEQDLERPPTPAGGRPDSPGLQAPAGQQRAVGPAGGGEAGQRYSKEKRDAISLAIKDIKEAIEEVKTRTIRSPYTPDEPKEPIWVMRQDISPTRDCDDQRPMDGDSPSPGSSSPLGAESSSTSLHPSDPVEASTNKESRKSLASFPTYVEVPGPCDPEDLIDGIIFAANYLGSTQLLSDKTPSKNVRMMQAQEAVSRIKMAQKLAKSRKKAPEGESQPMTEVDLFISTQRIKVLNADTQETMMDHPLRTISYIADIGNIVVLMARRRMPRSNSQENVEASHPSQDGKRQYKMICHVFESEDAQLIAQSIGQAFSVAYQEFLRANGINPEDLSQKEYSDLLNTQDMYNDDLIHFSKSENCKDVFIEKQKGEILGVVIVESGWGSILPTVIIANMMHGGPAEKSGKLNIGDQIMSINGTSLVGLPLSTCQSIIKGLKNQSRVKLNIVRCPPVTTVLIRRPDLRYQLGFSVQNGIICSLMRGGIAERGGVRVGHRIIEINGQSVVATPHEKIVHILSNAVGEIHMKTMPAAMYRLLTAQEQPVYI
Sequence of DNA dC->dU-editing enzyme APOBEC-3G (Q9HC16 whole entry): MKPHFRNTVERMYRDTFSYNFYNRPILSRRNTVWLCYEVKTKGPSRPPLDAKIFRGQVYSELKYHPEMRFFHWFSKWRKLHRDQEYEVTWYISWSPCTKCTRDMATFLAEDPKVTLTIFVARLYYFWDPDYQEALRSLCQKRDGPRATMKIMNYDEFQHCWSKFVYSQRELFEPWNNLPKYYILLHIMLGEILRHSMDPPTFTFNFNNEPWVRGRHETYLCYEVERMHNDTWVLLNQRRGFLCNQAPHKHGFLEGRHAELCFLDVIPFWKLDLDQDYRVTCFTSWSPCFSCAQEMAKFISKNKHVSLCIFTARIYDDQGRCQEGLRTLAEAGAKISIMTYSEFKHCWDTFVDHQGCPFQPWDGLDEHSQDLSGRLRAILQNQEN
T3 sequence (P98170 whole entry): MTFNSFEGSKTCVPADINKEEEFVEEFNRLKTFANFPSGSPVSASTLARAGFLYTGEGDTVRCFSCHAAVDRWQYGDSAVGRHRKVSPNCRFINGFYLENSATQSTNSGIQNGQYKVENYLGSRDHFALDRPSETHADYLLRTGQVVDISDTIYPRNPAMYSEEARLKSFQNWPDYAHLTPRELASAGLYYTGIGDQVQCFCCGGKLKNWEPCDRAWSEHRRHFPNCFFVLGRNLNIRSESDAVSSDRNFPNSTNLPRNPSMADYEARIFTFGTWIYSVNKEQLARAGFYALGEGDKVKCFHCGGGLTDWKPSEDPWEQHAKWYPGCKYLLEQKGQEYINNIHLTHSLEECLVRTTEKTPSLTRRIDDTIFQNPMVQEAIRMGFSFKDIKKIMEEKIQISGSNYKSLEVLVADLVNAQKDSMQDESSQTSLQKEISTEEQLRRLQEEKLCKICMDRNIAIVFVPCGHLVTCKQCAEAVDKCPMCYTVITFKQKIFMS
Sequence of Large T antigen (P03070 whole entry): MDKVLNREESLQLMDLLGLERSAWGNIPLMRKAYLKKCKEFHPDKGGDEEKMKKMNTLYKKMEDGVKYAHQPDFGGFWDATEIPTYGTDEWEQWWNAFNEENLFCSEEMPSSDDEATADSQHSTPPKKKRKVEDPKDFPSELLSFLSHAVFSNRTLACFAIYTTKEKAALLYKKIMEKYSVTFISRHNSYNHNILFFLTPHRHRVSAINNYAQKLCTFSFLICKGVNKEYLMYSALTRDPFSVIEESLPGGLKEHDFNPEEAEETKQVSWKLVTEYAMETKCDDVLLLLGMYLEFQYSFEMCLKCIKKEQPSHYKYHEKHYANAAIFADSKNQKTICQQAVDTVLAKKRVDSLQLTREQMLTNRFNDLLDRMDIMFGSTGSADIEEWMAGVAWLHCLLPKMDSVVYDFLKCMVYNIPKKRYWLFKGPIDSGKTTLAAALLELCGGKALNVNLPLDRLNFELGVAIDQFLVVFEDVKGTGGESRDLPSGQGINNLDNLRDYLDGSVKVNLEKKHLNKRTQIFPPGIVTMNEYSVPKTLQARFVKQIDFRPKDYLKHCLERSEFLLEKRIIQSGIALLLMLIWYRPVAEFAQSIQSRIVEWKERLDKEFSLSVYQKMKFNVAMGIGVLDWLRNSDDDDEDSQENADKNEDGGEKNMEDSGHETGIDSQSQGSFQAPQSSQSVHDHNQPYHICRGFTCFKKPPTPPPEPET

SMILES: Cc1ccc(-n2nnnc2C(Cl)(Cl)c2nnnn2-c2ccc(C)cc2)cc1
IC50 [1]: 4.55 µM (active)
EC50 [2]: > 38 µM (not active)
IC50 [3]: 11.1 µM (active)
IC50 [4]: 5.57 µM (active)
EC50 [5]: 1.11 µM (active)
EC50 [6]: 9.09 µM (active)
EC50 [7]: 15 µM (active)
EC50 [8]: 9.11 µM (active)
AC50 [9]: 1.27 µM (active)
AC50 [10]: 4.71 µM (active)
AC50 [11]: > 70 µM (inactive)
AC50 [12]: 15.6 µM (active)

SMILES: CCN1CCN(S(=O)(=O)c2ccc(Cl)c(C(=O)Nc3ccccc3N3CCOCC3)c2)CC1
IC50 [13]: 4.8 µM (active)
IC50 [14]: 3.81 µM (active)

SMILES: COc1ccccc1NC(=O)COC(=O)c1cc2c(s1)CCC2
IC50 [13]: 19.1 µM (active)
IC50 [14]: 51 µM (active)
AC50 [15]: 5.53 µM (active)

IC50 [16]: > 100 µM (inactive)
IC50 [17]: > 100 µM (not active)
SMILES: c1cc(CNc2ccc(N3CCOCC3)cc2)ccn1

IC50 [18]: 0.452 µM (active)
SMILES: CCCCNC(=O)Nc1ccc2nc(-c3ccco3)c(-c3ccco3)nc2c1
